According to patent US20220159955A1, “METHOD OF IMPROVING PLANT GROWTH” (UPL LTD, priority 2020, published 2022):
Entries after “also recorded” stand apart in the source; their conditions may differ.

Experiments:
Type in all cases: in vivo
[1] = system: transplanted rice; test: Seed treatment in transplanted rice: plant height, PGE rating, tillers (Example 5)
[2] = system: corn seeds; test: Plant vigour visual rating of corn from treated seeds (Example 3); parameters: Average Plant Vigor visual rating: scale not given here
Procedure: In this experiment the effect was tested on corn seeds. Treated and untreated seeds were sown to see the impact of flonicamid on the plant vigour. A line sowing method was used to sow the seeds.

[3] = system: transplanted rice; test: Seed treatment in transplanted rice: germination and crop safety (Example 5)
[4] = system: rice (DSR); test: Seed treatment in rice (DSR): plant height, PGE rating, tillers (Example 4)
[5] = system: rice (DSR); test: Seed treatment in rice (DSR): germination and crop safety (Example 4)
[6] = system: Thrips; test: Efficacy of seed treatment on thrips in direct sown rice (Example 4)
[7] = system: rice (DSR); test: Seed treatment in rice (DSR): rice grain yield (Example 4)
[8] = system: Thrips; test: Efficacy of seed treatment on thrips in transplanted rice (Example 5)
[9] = system: corn seeds; test: Phytotoxicity after seed treatment, corn; details: treatment of seeds
[10] = system: corn seeds; test: Germination of flonicamid-treated corn seeds, line sowing (Example 2); details: for Average germination %: corn seed
Procedure: In this experiment the effect of flonicamid was tested on corn seeds. Treated and untreated seeds were sown to see the impact of flonicamid on the plant germination. Treatments are performed using FS formulation of example 1. A line sowing method was used to sow the seeds.

## N#CCNC(=O)c1cnccc1C(F)(F)F [Flonicamid, N-cyanomethyl-4-trifluoromethylnicotinamide]
[1]; 5 ml/kg Seed, 15DAS
  Plant height (cm): 51.5 cm
[1]; 5 ml/kg Seed, 20DAS
  Plant height (cm): 72.8 cm
[1]; 5 ml/kg Seed, 30 DAS
  PGE rating: 2
[1]; 5 ml/kg Seed, 45DAS
  No. of tiller/hill: 20.8 tiller/hill
  PGE rating: 2
[1]; 5 ml/kg Seed, 60DAS
  No. of tiller/hill: 22.6 tiller/hill
[1]; 10 ml/kg Seed, 15DAS
  Plant height (cm): 58.4 cm
[1]; 10 ml/kg Seed, 20DAS
  Plant height (cm): 78.5 cm
[1]; 10 ml/kg Seed, 30 DAS
  PGE rating: 1
[1]; 10 ml/kg Seed, 45DAS
  No. of tiller/hill: 25.6 tiller/hill
  PGE rating: 1
[1]; 10 ml/kg Seed, 60DAS
  No. of tiller/hill: 28.5 tiller/hill
[2]; 5 g/ml/kg Seed, 10DAS
  Average Plant Vigor visual rating: 2
[2]; 5 g/ml/kg Seed, 20DAS
  Average Plant Vigor visual rating: 1
[2]; 5 g/ml/kg Seed, 30DAS
  Average Plant Vigor visual rating: 1
[2]; 5 g/ml/kg Seed, 40DAS
  Average Plant Vigor visual rating: 1
[2]; 10 g/ml/kg Seed, 10DAS
  Average Plant Vigor visual rating: 2
[2]; 10 g/ml/kg Seed, 20DAS
  Average Plant Vigor visual rating: 1
[2]; 10 g/ml/kg Seed, 30DAS
  Average Plant Vigor visual rating: 1
[2]; 10 g/ml/kg Seed, 40DAS
  Average Plant Vigor visual rating: 1
[2]; 30 days after sowing
  growth versus untreated control (in words): Excellent growth
[3]; 5 ml/kg Seed
  % Germination: 86%
[3]; 5 ml/kg Seed, 5DAS
  No. of germinated seed/sq · m: 98 seed/sq · m
[3]; 5 ml/kg Seed, 10DAS
  No. of germinated seed/sq · m: 102 seed/sq · m
[3]; 5 ml/kg Seed, 15DAS
  No. of germinated seed/sq · m: 108 seed/sq · m
[3]; 10 ml/kg Seed
  % Germination: 98%
[3]; 10 ml/kg Seed, 5DAS
  No. of germinated seed/sq · m: 110 seed/sq · m
[3]; 10 ml/kg Seed, 10DAS
  No. of germinated seed/sq · m: 120 seed/sq · m
[3]; 10 ml/kg Seed, 15DAS
  No. of germinated seed/sq · m: 128 seed/sq · m
[4]; 5 ml/kg Seed, 15 DAS
  PGE rating: 2
  Plant hight (cm): 12.83 cm
[4]; 5 ml/kg Seed, 20 DAS
  Plant hight (cm): 22.45 cm
[4]; 5 ml/kg Seed, 30 DAS
  PGE rating: 2
[4]; 5 ml/kg Seed, 45 DAS
  No. of tiller/hill: 13.5 tiller/hill
  PGE rating: 3
[4]; 5 ml/kg Seed, 60 DAS
  No. of tiller/hill: 15.3 tiller/hill
[4]; 10 ml/kg Seed, 15 DAS
  PGE rating: 1
  Plant hight (cm): 15.33 cm
[4]; 10 ml/kg Seed, 20 DAS
  Plant hight (cm): 26.66 cm
[4]; 10 ml/kg Seed, 30 DAS
  PGE rating: 1
[4]; 10 ml/kg Seed, 45 DAS
  No. of tiller/hill: 17.2 tiller/hill
  PGE rating: 2
[4]; 10 ml/kg Seed, 60 DAS
  No. of tiller/hill: 19.7 tiller/hill
[4]; seed treatment vs untreated
  crop vigour parameter (in words): improvement in crop vigour parameter
[5]; 5 ml/kg Seed
  % Germination: 90%
[5]; 5 ml/kg Seed, 5DAS
  No. of germinated seed/sq · m: 65.3 seed/sq · m
[5]; 5 ml/kg Seed, 10DAS
  No. of germinated seed/sq · m: 69.6 seed/sq · m
[5]; 5 ml/kg Seed, 15 DAS
  No. of germinated seed/sq · m: 70.6 seed/sq · m
[5]; 10 ml/kg Seed
  % Germination: 98%
[5]; 10 ml/kg Seed, 5DAS
  No. of germinated seed/sq · m: 70.6 seed/sq · m
[5]; 10 ml/kg Seed, 10DAS
  No. of germinated seed/sq · m: 73.3 seed/sq · m
[5]; 10 ml/kg Seed, 15 DAS
  No. of germinated seed/sq · m: 78.6 seed/sq · m
[5]; seed treatment vs untreated
  plant growth/germination (in words): enhanced plant growth/germination
[6]; 5 ml/kg Seed, 15DAS
  No. of Thrips/Seedling: 4.5 Thrips/Seedling
[6]; 5 ml/kg Seed, 20DAS
  No. of Thrips/Seedling: 8.3 Thrips/Seedling
[6]; 5 ml/kg Seed, 25DAS
  No. of Thrips/Seedling: 12.3 Thrips/Seedling
[6]; 10 ml/kg Seed, 15DAS
  No. of Thrips/Seedling: 1.3 Thrips/Seedling
[6]; 10 ml/kg Seed, 20DAS
  No. of Thrips/Seedling: 4.8 Thrips/Seedling
[6]; 10 ml/kg Seed, 25DAS
  No. of Thrips/Seedling: 7.2 Thrips/Seedling
[6]; seed treatment vs untreated
  control of thrips (in words): better control of thrips
[7]; 5 ml/kg Seed
  Rice grain yield t/ha: 4.53 t/ha
[7]; 10 ml/kg Seed
  Rice grain yield t/ha: 4.85 t/ha
[8]; 5 ml/kg Seed, 15DAS
  No. of Thrips/Seedling: 2.5 Thrips /Seedling
[8]; 5 ml/kg Seed, 20DAS
  No. of Thrips/Seedling: 7.2 Thrips /Seedling
[8]; 5 ml/kg Seed, 25DAS
  No. of Thrips/Seedling: 11.5 Thrips /Seedling
[8]; 10 ml/kg Seed, 15DAS
  No. of Thrips/Seedling: 1.2 Thrips /Seedling
[8]; 10 ml/kg Seed, 20DAS
  No. of Thrips/Seedling: 5.6 Thrips /Seedling
[8]; 10 ml/kg Seed, 25DAS
  No. of Thrips/Seedling: 9.3 Thrips /Seedling
[9]
  phytotoxicity: no phytotoxicity was observed
[10]; 5 g/ml/kg Seed, 5DAS
  Average germination %: 77.5%
[10]; 5 g/ml/kg Seed, 10DAS
  Average germination %: 97.5%
[10]; 5 g/ml/kg Seed, 15DAS
  Average germination %: 97.5%
[10]; 10 g/ml/kg Seed, 5DAS
  Average germination %: 82.5%
[10]; 10 g/ml/kg Seed, 10DAS
  Average germination %: 98%
[10]; 10 g/ml/kg Seed, 15DAS
  Average germination %: 98%
[10]; corn, seed treatment vs untreated
  germination of tested corn seeds (in words): significant improvement in germination; also recorded: Enhanced germination %
